Measurements from patent US20260286297A1, “METHOD FOR PRODUCING GROUP 2 INNATE LYMPHOID CELLS” (KYOTO UNIVERSITY, priority 2023, published 2026).

How the values were obtained:
[1] = tested on: hematopoietic precursor cells (derived from iPS cell line 1231A2); experiment: Differentiation induction from iPS cell-derived HPCs to ILC2s, flow cytometry (Experiments 2 and 4); type: cell-based, human; details: line 1231A2 HPCs; for induction of ILC2-like cell populations (lineage marker-negative, GATA3-expressing, capacity to produce IL-13): CDK8 inhibitor in medium B Day 6-12 (Senexin A 3 μM; CCT-251921 100 nM), flow cytometry after 12 days; for differentiation induction into ILC2-like cells containing IL-10-producing cells: Condition 2 plus CDK8 inhibitor in medium B Day 6-12 (Compounds 1-3 1 μM, Compound 4 10 μM)
Protocol: The HPCs prepared from the iPS cells in Experiment 1 were cultured to be differentiation-induced into ILC2s. Specifically, 2500 to 20000 HPC stock cells prepared from the line 1231A2 were seeded in a 96-well plate (Corning, 3799 or Iwaki, 3860-096) coated with 2.5 μg/mL Fc-DLL4 and 2.5 μg/mL RetroNectin™ (Day 0) and cultured at 37° C. in a 5% CO2 atmosphere under the medium conditions shown below for 12 days to be differentiation-induced. In the differentiation induction culture for 12 days, 100 μL of medium was added on Day 3, followed by medium replacement on Day 6 and Day 9. If the cells in each culture well are confluent after the medium replacement on Day 6 and Day 9, the cells in the well were suspended, 2-fold diluted, and reseeded in a new 96-well plate. In the cases of Conditions 2 to 4, IL-2 (BioLegend, 589108 or PeproTech, 200-02) was added to medium A at 200 U/mL. In the case of Condition 3, Senexin A (Selleck, S8520) was added to medium B at 3 μM as CDK8 inhibitor. In the case of Condition 4, CCT-251921 (MedChemExpress, HY-19984) was added to medium B at 100 nM as CDK8 inhibitor. The differentiated cells cultured as described above were stimulated at 37° C. in a 5% CO2 atmosphere for 4 to 6 hours using the following: • IL-1β (PeproTech, 200-01B), final concentration: 10 ng/ml. • IL-2, final concentration: 20 ng/ml. • IL-7, final concentration: 50 ng/ml. • IL-23 (BioLegend, 574106), final concentration: 20 ng/ml • IL-25 (IL-17E) (PeproTech, 200-24), final concentration: 20 ng/ml • eBioscience™ Cell Stimulation Cocktail (plus Protein transport inhibitor) (Thermo Fisher Scientific, 00-4975-03) The stimulated cells were subsequently stained and analyzed with an LSRFortessa™ Cell Analyzer (BD Biosciences) by flow cytometry. […] The present experiment confirmed the differentiation induction into ILC2s using multiple CDK8 inhibitors having different structures.

[2] = tested on: HPCs derived from the line Ff-101s04; experiment: Differentiation induction from iPS cell-derived HPCs to ILC2s, different iPS cell line (Experiment 3); type: cell-based, human; details: HPCs from iPS line Ff-101s04; Condition 3 (3 μM Senexin A), Condition 4 (100 nM CCT-251921)
[3] = tested on: human cord blood-derived CD34-positive cells; experiment: Differentiation induction from human cord blood-derived CD34-positive HPCs to ILC2s (Experiment 5); type: cell-based; details: Condition 3 (3 μM Senexin A), flow cytometry on Day 19
From the text: In order to ascertain the versatility of the method for differentiation induction in Experiment 2, the present experiment confirmed the differentiation induction from HPCs derived from the human body to ILC2s. Specifically, ILC2s were differentiation-induced by culturing purchased human cord blood-derived CD34-positive cells (Lonza, 2C-101) with the methods of Condition 1, Condition 2, and Condition 3 in Experiment 2. In the present experiment, the medium was also replaced with the same medium as on Days 6 to 12 on Day 12 and Day 15 of the culture, and the cells in each culture well were 2-fold diluted and reseeded in the case where the cells in the culture well were confluent.

[4] = tested on: iPS cell-derived HPCs differentiation culture; experiment: Concentrations of cytokines in differentiation culture supernatant containing iPS cell-derived ILC2s (Experiment 6); type: cell-based, human; details: Day 12 culture supernatant; Condition 3 versus Conditions 1 and 2
From the text: The culture supernatant of Day 12 of the culture was collected that was differentiation-induced under “Condition 1”, “Condition 2”, and “Condition 3” described in Experiment 2, followed by the quantification of concentrations of IL-10, IL-5, and amphiregulin in the culture supernatant with the following kits, respectively. Amphiregulin is a cytokine that plays a central role in the capacity of ILC2s to repair tissue. It is conceivable that ILC2s having the capacity to repair tissue were obtained in the case where amphiregulin increased in concentration. • IL-10: Human IL-10 immunoassay kit (PerkinElmer, AL218C) • IL-5: Human IL-5 immunoassay kit (PerkinElmer, AL267C) • Amphiregulin: Human Amphiregulin Quantikine ELISA Kit (R&D Systems, DAR00)
IL-10 and IL-5 were measured with an Envision (Revvity). Amphiregulin was measured with a Powerscan4 (DS pharma biomedical Co., LTD.).

Row | SMILES | induction of ILC2-like cell populations (lineage marker-negative, GATA3-expressing, capacity to produce IL-13) [1] | differentiation induction into ILC2-like cells containing IL-10-producing cells [1] | capacity of the induced ILC2-like cells to produce IL-10 ([1]; Condition 3, 3 μM Senexin A in medium B Day 6-12) | differentiation induction of ILC2-like cells containing IL-10-producing cells [2] | differentiation induction of ILC2-like cells containing IL-10-producing cells [3] | production of IL-5 in the culture supernatant [4] | production of IL-10 in the culture supernatant [4] | production of amphiregulin in the culture supernatant [4]
1 | N#Cc1ccc2ncnc(NCCc3ccccc3)c2c1 [Senexin A] | ILC2-like cell populations were induced | observed | had the capacity to produce IL-10 | ILC2-like cells containing IL-10-producing cells were differentiation-induced | ILC2-like cells containing IL-10-producing cells were differentiation-induced | enhancement of production | enhancement of production | enhancement of production
2 | Cn1ncc2cc(-c3cnc(N)c(Cl)c3N3CCC4(CCNC4=O)CC3)ccc21 [CCT-251921] | ILC2-like cell populations were induced | observed |  | ILC2-like cells containing IL-10-producing cells were differentiation-induced |  |  |  | 
